The values below are quoted from earlier work in patent US20190357582A1, “Methods For Inducing Adipocyte Browning, Improving Metabolic Flexibility, And Reducing Detrimental White Adipose Tissue Deposition And Dysfunction” (MEAD JOHNSON NUTRITION COMPANY, priority 2017, published 2019).

For this series, the system named is UCP1. To be noted: positive control for browning.

`COc1ccc2c(c1)[nH]c1c(C)nccc12` [Harmine]: the browning activity entry was “browning activity”.
